Data taken from patent US20100086518A1, “TREATMENT OF MELANOMA” (NOVARTIS AG, priority 2007, published 2010).
Like-named read-outs stand apart in the source and are kept apart here.

Key:
VEGFR2/Flk1 = molecular target: T1, VEGFR2/Flk1 (UniProt P35968); experiment: VEGFR2 kinase assay (purified enzyme); type: biochemical; details: read-out: IC50 VEGFR flk1
T1 construct: other: purified enzyme

[1] = system: melanoma tumor cells MEXF 1765/3; experiment: cells; details: Homo sapiens
[2] = system: melanoma tumor cells MEXF 672/3; experiment: cells; details: Homo sapiens
[3] = system: human melanoma CHL-1 (wild type B-Raf) xenograft; type: in vivo; details: day 25
Description: Animals. […] . Mice were implanted with subcutaneous ID chips upon arrival and then underwent at least 7 days of acclimatization prior to the study start. All animal studies were conducted in a facility accredited by the Association for Assessment and Accreditation of Laboratory Animal Care International and in accordance with all guidelines of the Institutional Animal Care and Use Committee and the Guide for The Care and Use of Laboratory Animals (National Research Council).
Cell culture for in vivo efficacy studies. […] The human melanoma cell line CHL-1 was cultured for 6 passages in DMEM media with low glutamine+10% FBS at 37° C. in a humidified atmosphere with 5% CO2.
The day of tumor cell implantation, tumor cells were harvested and resuspended in HBSS (A375 cells) or 50% HBSS+plus 50% Matrigel (CHL-1 cells; Becton Dickenson and Company, Franklin Lakes, N.J.) at 2.5×10^7 cells/mL. Cells were inoculated subcutaneously in the right flank at 5×10^6 cells/200 uL/mouse.
. The group sizes were 9 animals per group (A375 study) or 10 animals per group (CHL-1 study). […] . […] . […] Comparisons of the mean tumor volume in the treatment vs. the vehicle group were evaluated using a Student's two tailed t-test (Excel software).

[4] = system: melanoma tumor cells MEXF 989/7; experiment: cells; details: Homo sapiens
[5] = system: BRaf WT CHL-1 melanoma tumors
[6] = system: melanoma tumor cells MEXF 1341/3; experiment: cells; details: Homo sapiens
[7] = system: melanoma-inhibitory activity (MIA) protein; experiment: Plasma MIA levels in the CHL-1 study; type: in vivo, Nu/Nu mice; details: 30 mg/kg and 80 mg/kg groups
Description: MIA ELISA Assay: Equal numbers of human melanoma and colorectal carcinoma cells (˜250,000 cells for each cell line) were seeded onto tissue culture plates and the culture medium for each cell line was collected 48 hr later. Levels of MIA in culture media or plasma were measured by a commercial single-step ELISA kit according to the manufacturer's protocol (Roche Diagnostics Corporation, Indianapolis, Ind.). MIA concentrations in test samples were calculated using a standard curve ranging from 3-37 ng/mL. When the MIA concentration exceeded the highest standard concentration, the samples were diluted 1:5 and assayed again to have the results fall within the linear range of the standard curve. Data were evaluated using the Student t-test (two-tailed distribution, two-sample unequal variance), using P≦0.05 as the level of significance.
In the CHL-1 study, plasma levels of the melanoma marker melanoma-inhibitory activity (MIA) protein secreted by melanoma cells were also measured.

[8] = system: bFGF-driven neovascularization; experiment: In vivo FGF-mediated matrigel angiogenesis assay; details: daily for 8 days
[9] = system: other kinases in the PI3K/Akt and MAPK(K) pathways; details: read-out: IC50 other kinases in the PI3K/Akt and MAPK(K) pathways; negligible activity
[10] = system: melanoma tumor cells MEXF 514/12; experiment: cells; details: Homo sapiens
[11] = system: melanoma tumor cells MEXF 462/6; experiment: cells; details: Homo sapiens
[12] = system: melanoma tumor cells MEXF 276/7; experiment: cells; details: Homo sapiens
[13] = Cmpd 1 30 mg/kg qd, carboplatin 50 mg/kg + paclitaxel 25 mg/kg 1x/wk

`CN1CCN(c2ccc3nc(-c4c(N)c5c(F)cccc5[nH]c4=O)[nH]c3c2)CC1` [Compound 1, 4-amino-5-fluoro-3-[6-(4-methylpiperazin-1-yl)-1H-benzimidazol-2-yl]-1H-quinolin-2-one] showed an IC50 ([1]; read-out: IC50 clonogenic, MEXF 1765/3) of 2580 nM, an EC50 ([1]; read-out: relative EC50 soft agar clonogenic, 1765/3) of 2580 nM and an IC50 ([2]; read-out: IC50 clonogenic, MEXF 672/3) of 1670 nM. For the same compound, the EC50 ([2]; read-out: relative EC50 soft agar clonogenic, 672/3) was 1670 nM, the “tumor growth inhibition (TGI)” value ([3]; 10 mpk p.o. daily) was 64% and the “tumor growth inhibition (TGI)” value ([3]; 30 mpk p.o. daily) was 73%. For the same compound, the “tumor growth inhibition (TGI)” value ([3]; 60 mpk p.o. daily) was 89%, the “tumor growth inhibition (TGI)” value ([3]; 80 mpk p.o. daily) was 87% and the IC50 ([4]; MEXF 989, read-out: IC50 clonogenic, MEXF 989/7) was 2540 nM. The EC50 ([4]; MEXF 989, read-out: relative EC50 soft agar clonogenic, 989/7) was 2540 nM, the “Clinical Observations” value ([5]; BAR = bright, alert, responsive, BWL = body weight loss) was “BAR” and the “% Mean change in BW of initial” value [5, 13] was 4.3%. For the same compound, the “Max % TGI; day 14” value [5, 13] was 52.51%, the “Mean of Tv on day 14” value ([5]; Cmpd 1 30 mg/kg qd, carboplatin 50 mg/kg + paclitaxel 25 mg/kg 1x/wk, tumor volume in mm^3) was 884 and the “T/C Observed (O)” value ([5]; day 14) was 0.56. For the same compound, the IC50 ([6]; read-out: IC50 clonogenic, MEXF 1341/3) was 2240 nM, the EC50 ([6]; read-out: relative EC50 soft agar clonogenic, 1341/3) was 2240 nM and the “plasma MIA levels” value ([7]; day 8, vehicle […]) was “undetectable”. The “plasma MIA levels” value ([7]; day 22) was “undetectable”, the “hemoglobin level in Matrigel plugs versus unsupplemented Matrigel” value ([8]; all doses >10 mg/kg) was “less than the basal hemoglobin level” and the “IC50 of inhibition of bFGF-driven neovascularization” value ([8]; oral, 3-100 mg/kg, hemoglobin in Matrigel plugs) was 3 mg/kg. For the same compound, the IC50 [9] was greater than 10 µM, the IC50 ([10]; MEXF514, read-out: IC50 clonogenic, MEXF 514/12) was 1050 nM and the EC50 ([10]; MEXF514, read-out: relative EC50 soft agar clonogenic, 514/12) was 1050 nM. For the same compound, the IC50 ([11]; read-out: IC50 clonogenic, MEXF 462/6) was 700 nM, the EC50 ([11]; read-out: relative EC50 soft agar clonogenic, 462/6) was 700 nM and the IC50 ([12]; read-out: IC50 clonogenic, MEXF 276/7) was 1140 nM. For the same compound, the EC50 ([12]; read-out: relative EC50 soft agar clonogenic, 276/7) was 1140 nM.
